# In patent US20230248731A1, “COMPOSITION AND MEDICAMENT OF PALBOCICLIB ISETHIONATE” (NANJING GRITPHARMA CO., LTD., priority 2020, published 2023):
# Columns and labels:
# [1] = background statement; cited from earlier work
# [2] = Pharmacokinetics of palbociclib isethionate after single oral administration in 125 mg (Pfizer study 1036); type: in vivo, human; details: single oral 125 mg
# Description: Existing clinical tests have also shown that the palbociclib isethionate has different bioavailability values before or after a meal. Pharmacokinetics of the palbociclib isethionate in healthy subjects after single administration were evaluated by Pfizer Pharmaceutical, an original research company. Different effects are achieved when the medicine is taken before or after a meal. Compared with administration before a meal, administration after a meal has the advantages that the Cmax value is increased by 7%, and the AUCinf value is increased by about 9%. The food prolongs the retention time of the medicine in the gastric juice, so that the bioavailability is improved. The basic reason is that as the pH environment in the stomach and intestines is different, the palbociclib isethionate has inconsistent dissolution and release conditions, resulting in different bioavailability values. Therefore, when the dissolution of the palbociclib isethionate can be improved under neutral and weakly alkaline conditions, great benefits will be brought to application of the palbociclib isethionate to the treatment of related diseases in the human body.
# [3] = Solubility of palbociclib isethionate at different pH values; type: physicochemical
# Excerpt: First, the applicant has studied the solubility of palbociclib isethionate in water, a hydrochloric acid solution with a pH of 1.0, a phosphate buffer with a pH of 6.8 and an acetate buffer with a pH of 4.5 (as shown in Table 3). […] However, the palbociclib isethionate enters the intestinal tract rapidly on an empty stomach, and the pH environment becomes neutral and weakly alkaline. As the solubility of the palbociclib isethionate is extremely low at a pH of 6.8, absorption of the palbociclib isethionate will be affected by the solubility, which is extremely unfavorable to the absorption and utilization of the palbociclib isethionate.
smiles,measurement,setting,value
"CC(=O)c1c(C)c2cnc(Nc3ccc(N4CCNCC4)cn3)nc2n(C2CCCC2)c1=O [palbociclib in a free alkali form, palbociclib]",Solubility in water (in words),[1],poor solubility in water
CC(=O)c1c(C)c2cnc(Nc3ccc(N4CCNCC4)cn3)nc2n(C2CCCC2)c1=O.O=S(=O)(O)CCO [palbociclib isethionate],"Increase of AUCinf, administration after a meal compared with before a meal",[2],about 9%
same,"Increase of Cmax, administration after a meal compared with before a meal",[2],7%
same,Solubility,[3]; acetate buffer pH 4.5,84.7 mg/mL
same,Solubility,[3]; hydrochloric acid solution pH 1.0,90.7 mg/mL
same,Solubility (in words),[3]; pH 6.8,extremely low
same,Solubility,[3]; phosphate buffer pH 6.8,0.04 mg/mL
same,Solubility,[3]; water,84.8 mg/mL
